Laboratory results from patent US10092588B2, “Foamable compositions, breakable foams and their uses” (Foamix Pharmaceuticals Ltd., priority 2009, dated 2018).

Assay: Solubility of mometasone furoate in foam composition, visual inspection
Assay type: physicochemical
Conditions: in the hydro-alcoholic foam formulation

- Solubility of Mometasone Furoate: soluble
SMILES: C[C@@H]1C[C@H]2[C@@H]3CCC4=CC(=O)C=C[C@]4(C)[C@@]3(Cl)[C@@H](O)C[C@]2(C)[C@@]1(OC(=O)c1ccco1)C(=O)CCl [Mometasone furoate]
